Among the data in the supplement of paper PMC10307832 are relative viability values, retold here.

Common to all, as to test: relative viability (nuclei count vs DMSO), 5 days (fraction); higher = more cells survive
Compound in test [1]: O=C(C[C@H]1NCCC[C@@H]1O)Cn1cnc2cc(Br)c(Cl)cc2c1=O (racemic) [Halofuginone] + CS(=O)(=O)CCNCc1ccc(-c2ccc3ncnc(Nc4ccc(OCc5cccc(F)c5)c(Cl)c4)c3c2)o1 [Lapatinib] (partner 2 µM)
The procedure, abridged:
(§1)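 Lung cancer cell lines, seeded in 1536-well plates, were treated the following day by pin tool with a single drug or with five library-drug doses (not always all listed) in √10 steps on top of a fixed anchor-drug dose. Cells were fixed and nuclei stained in one step after 5 days, and nuclei were counted. Relative viability is the nuclei count for treated wells divided by that for vehicle wells, reported as medians of duplicate plates.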

Compound in test [2]: COc1cc2c(Oc3ccc4[nH]c(C)cc4c3F)ncnc2cc1OCCCN1CCCC1 [Cediranib] + O=C(c1cc(Cc2n[nH]c(=O)c3ccccc23)ccc1F)N1CCN(C(=O)C2CC2)CC1 [Olaparib] (partner 8 µM)
In short, it runs like this:
as §1

Compound in test [3]: COc1cc2c(Oc3ccc4[nH]c(C)cc4c3F)ncnc2cc1OCCCN1CCCC1 [Cediranib] + CC1(C)CCC(c2ccc(Cl)cc2)=C(CN2CCN(c3ccc(C(=O)NS(=O)(=O)c4ccc(N[C@H](CCN5CCOCC5)CSc5ccccc5)c(S(=O)(=O)C(F)(F)F)c4)cc3)CC2)C1 [Navitoclax] (partner 0.5 µM)
The procedure, abridged: as §1

Compound in test [4]: COc1cc2c(Oc3ccc4[nH]c(C)cc4c3F)ncnc2cc1OCCCN1CCCC1 [Cediranib] + C[C@]1(O)C[C@@H](c2nc(-c3ccc4ccc(-c5ccccc5)nc4c3)c3c(N)nccn32)C1 [Linsitinib] (partner 1 µM)
In short, it runs like this: as §1

Take UMC-11: the relative viability in test [1] (first compound 0.001 µM) was found to be 1.02; in test [1] (first compound 0.003162 µM) it was 0.997; in test [1] (first compound 0.01 µM), 0.889; in test [1] (first compound 0.03162 µM) it was 0.924; in test [1] (first compound 0.1 µM) it was 0.7; in test [2] (first compound 0.04 µM), 0.373. Moreover, the relative viability in test [2] (first compound 0.1265 µM) is 0.335; in test [2] (first compound 0.4 µM), 0.371; in test [2] (first compound 1.265 µM) it was 0.388; in test [2] (first compound 4 µM) it was 0.406; in test [3] (first compound 0.04 µM) it was 0.328; in test [3] (first compound 0.1265 µM), 0.293. The relative viability in test [3] (first compound 0.4 µM) was 0.322; in test [3] (first compound 1.265 µM) it was 0.321; in test [3] (first compound 4 µM), 0.359; in test [4] (first compound 0.04 µM), 1.06; in test [4] (first compound 0.1265 µM), 1.02; in test [4] (first compound 0.4 µM) it was 0.955. The relative viability is 0.957 in test [4] (first compound 1.265 µM) and 0.934 in test [4] (first compound 4 µM).
